From US20120003298A1, “METHODS FOR INDUCING AN IMMUNE RESPONSE” (priority 2010, published 2012)

What was measured:
CYP2C9 = molecular target: T1, CYP2C9 (Homo sapiens, UniProt P11712); assay: Fluorescent High Throughput P450 assay, CYP2C9; type: biochemical
T1 construct: purchased Gentest
Protocol: (§1) Inhibition of the P450 isoforms was measured in specific assays using specific substrates that become fluorescent upon CYP metabolism. Compounds, dissolved in ACN (acetonitrile) (CYP2E1, CYP2C8, CYP2B6, CYP3A5) or DMSO (all remaining isoforms), were tested in duplicate (n=2) in concentration-response curves (eight concentrations) in a 96-well plate containing incubation/NADPH regenerating buffer. Specific isoenzymes and substrates were added and incubated at 37° C. Reactions were terminated at different times, depending on the assays, and plates read on a Fluoroskan Ascent at the appropriate emission/excitation wavelengths. Concentration-response curves performed in duplicate for known inhibitors for each isoenzyme were tested in every assay as positive control.

CYP3A4 = molecular target: T2, CYP3A4 (Homo sapiens, UniProt P08684); assay: Fluorescent High Throughput P450 assay, CYP3A4; type: biochemical
T2 construct: purchased Gentest
Protocol: as §1

[1] = Intravenous pharmacokinetics in the mouse
Protocol: An IV bolus was administered into the caudal vein at a dose of 1 mg/kg in 5 ml. The compound weight was 2.08/10.04 ml. 24 mice were studied. Sampling was obtained by exsanguination under anesthesia, at 5, 15, 30, 60, 240, and 480 minutes, and at 24 hours. […] Animals were sacrificed using ethyl ether at the conclusion of the experiment.
Sample preparation: In a Sirocco filter plate, 100 microliters of plasma were added to 300 microliters of ACN/MeOH spiked with 5 microliters of IS (IV298 10 micrograms per ml) plus 10 microliters of 5% H3PO4. The plate was shaken for 10 minutes at 80 rpm and then filtered under vacuum for 5 minutes.
Analytical method: LC/MS/MS: Premiere XE, Eluent: water (A) MeOH(B) plus 0.1% HCOOH gradient. 15% B to 100% B from 0.1 to 0.5, then isocratic 100% B up to 1.5 minutes, flow 0.8 ml/min; Column Acquity HPLC BEH C18 1.7 microm 2.1×50 mm, injection volume of 5 microliters in a T column at 50° C. ESI positive, MRM, Extractor 5V; Capillary 3.5 kV; T source 115° C.; T desolv. 450° C.
Data analysis: Non-compartmental analysis WinNonlin 5.1; linear trapezoidal, uniform weight.

human whole blood = assay: Cytokine secretion in human whole blood assay, ELISA; type: cell-based; conditions: whole blood, 6 hours
Protocol: Before drawing the blood, the compounds were added to 96 well round bottom plates in a 10× diluted sample at 20 ul. The compounds were diluted in RPMI media without serum but with antibiotics. Antibiotics were added at a 10× concentration. After drawing the blood, the whole blood sample was gently mixed to obtain a homogeneous sample, and 180 ul was added to each well.
All compounds were setup in concentrations at 0-0.01-0.03-0.1-0.5-2.0-10.0 micromolar as the final concentration. Vehicle control was DMSO control, where we used the highest concentration used for the compounds. After addition of blood, all plates were gently agitated at 37° C. and 5% CO2 until harvest.
For the 6 hours time point, the plate was centrifuged 500×g. Supernatant (SN) was transferred to a tube and centrifuged at 10.000×g for 10 min to get rid of cells and protein aggregates. The clarified supernatant was frozen at −80° C. until analysis.
The SN was removed to another tube and centrifuged at 10.000×g for 10 min. to get rid of aggregates etc. The clarified supernatant was frozen at −80° C. until analysis.
Concentrations of cytokines were determined by ELISA from R&D Systems. The results were analyzed in Graph Pad Prism in order to prepare dose-response
curves, and for determination of EC50 values. FACS analysis was made by using Becton-Dickinson FACSDiva software and subsequently illustrated in Graph Pad Prism.

PBMCs = assay: IL-6 and TNF-alpha secretion in PBMC model (Model 2), ELISA; type: cell-based, human; conditions: three donors
OVA specific Ig = assay: Adjuvanticity with ovalbumin (OVA), subcutaneous immunization; type: in vivo, mouse
Source text: For the adjuvanticity experiments, mice were subcutaneously immunized with 20 pg ovalbumin (OVA) with 10 nmol or 100 nmol (TLR7 agonist equivalent dose) per mouse in various TLR7 conjugates on days 0 and 7. Sera were collected on days 0, 7, 14, 21, 28, 42, and 56. Mice immunized with saline or OVA mixed with vehicle served as controls. Mice were sacrificed on day 56.
Immunization occurs on day 0 and 7. Serum collection day is on 0, 7, 14, 21, 28, 42 and 56 days.

[2] = Intrabladder application, serum cytokines (Luminex) and histology; type: in vivo, mouse
Protocol: Female C57BU6 mice were anesthetized with ketamine/xylazine. The 50 microliter formulated compounds were intravesically administered for twenty minutes at each treatment. The treatment schedule and doses are in Table 35 and 36, respectively. The levels of cytokines (IL-6, IL-12, and TNF-alpha) were determined by Luminex assay. Paraffin sections were prepared and H & E staining performed.

NFκB-bla Raw 264.7 Cells = assay: NFκB activation in NFκB-bla Raw 264.7 cells; type: cell-based, mouse; conditions: FIG. 2
Protocol: NFκB-bla Raw 264.7 Cells were purchased from Life Technologies Corporation (Carlsbad, Calif.). […] Drugs were dissolved and diluted in DMSO to obtain an initial stock solution (10 or 50 mM). Drugs were then serially diluted (usually 1:3 or 1:5) in DMSO. The stock solutions were further diluted in Assay Medium and added to cells already in each well.

[3] = Solubility observations in the text
[4] = tested on: AY-27 rat bladder cancer cell-line; conditions: in vivo
[5] = tested on: Escherichia coli WP2 uvrA; assay: Bacterial mutation assay, Escherichia coli; type: cell-based
Protocol: The five tester strains TA1535, TA1537, TA98, TA100 and WP2 uvrA were used. Experiments were performed both in the absence and presence of metabolic activation, using liver S9 fraction from rats pre-treated with phenobarbitone and betanaphthoflavone. SC12 was used as a solution in dimethylsulfoxide (DMSO).

Inv-Myc mice = assay: Mouse skin cancer model (Inv-Myc mice, Tamoxifen induction), topical creams; type: in vivo
Protocol: The mice used are essentially discussed in Pelengaris, S., et al., (1999) Molecular Cell 3:565-77. Activation of c-myc in this model, such as by the application of Tamoxifen, leads to increased keratinocyte proliferation, reversible epidermal hyperplasia, and papillomatosis changes.
Sex-matched 8-15 week old Inv-Myc mice were used for the study. The mice were shaved on the back 24 hours before the daily Tamoxifen induction (1 mg/200 microliters ethanol, day 0 to 7) to an area 5×3 cm^2. […] Mice were sacrificed on day 10. […] Sera were collected when mice were sacrificed and 2 hours after the first cream application in some instances.

[6] = tested on: myeloid CD11c+/CD123− DCs; assay: FACS, myeloid DC activation in whole blood; type: cell-based, human; conditions: 24 hours; 0.1 and 0.5 uM
Protocol: The FACS analysis for donor 1 and donor 2 was made on another day than donor 3. The compound concentrations were as follows:
B cell activation: 2 and 10 uM mDC/pDC: 0.1 and 0.5 uM
The FACS analysis was used to identify whether the test compounds could induce activation of B cells, and two different subsets of dendritic cells, namely the myeloid CD11c+/CD123− DCs and the plasmacytoid CD11c−/CD123+DCs. The following markers were studied to identify the activation status of the different subsets:
The FACS staining was performed according to the manufacturer's instructions. Lysis of red blood cells was performed before FACS staining in order to minimize auto-florescence. To include as many B cells and DCs in the study as possible the FACS analyses were performed on 500,000 cells in total for each staining. A P1 gate was set only to include relevant cells on FSC vs. SSC (see FIGS. 12-15). The results of the individual analysis were present as Mean Fluorescence Intensity (MFI) values, for certain activation marker in a given gate setting, represent the actual cell subset. The isotype background values have been used to set the gates so that a maximum at 2% of unspecific stained cells could be found in the positive gates.
The analysis of myeloid DCs was based on HLA-DR+/CD11c+/CD123-cells, thus all analyzed cells was included in the HLA-DR+(P3) gate and CD11c+/CD123− (Q4) gate (see gates in FIGS. 13-15).

MB49 cells = assay: Mouse bladder cancer model, intravesical treatment (Experiment 24); type: in vivo
Protocol: A set of experiments was conducted with SC12 in various solutions, in a mouse bladder cancer model.
7-9 week old C57BU6 mice were implanted with 1×10^6 MB49 cells after 0.1% poly L lysine treatment on day 0. […] On day 11, mice were sacrificed and organs were harvested.

T2 sequence (P08684 whole entry): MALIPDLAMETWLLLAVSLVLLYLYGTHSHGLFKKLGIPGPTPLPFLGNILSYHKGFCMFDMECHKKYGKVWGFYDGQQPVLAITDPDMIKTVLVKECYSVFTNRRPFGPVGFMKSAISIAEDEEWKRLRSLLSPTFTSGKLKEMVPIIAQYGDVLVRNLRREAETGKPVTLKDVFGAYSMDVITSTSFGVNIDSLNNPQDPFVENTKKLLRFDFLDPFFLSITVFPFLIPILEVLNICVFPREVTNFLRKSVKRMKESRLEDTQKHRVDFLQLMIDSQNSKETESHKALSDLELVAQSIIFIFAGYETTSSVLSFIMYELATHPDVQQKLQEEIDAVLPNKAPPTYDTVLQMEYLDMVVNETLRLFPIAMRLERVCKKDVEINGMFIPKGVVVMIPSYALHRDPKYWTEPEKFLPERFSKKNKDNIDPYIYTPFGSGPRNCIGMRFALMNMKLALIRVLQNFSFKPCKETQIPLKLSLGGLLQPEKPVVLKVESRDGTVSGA
T1 sequence (P11712 whole entry): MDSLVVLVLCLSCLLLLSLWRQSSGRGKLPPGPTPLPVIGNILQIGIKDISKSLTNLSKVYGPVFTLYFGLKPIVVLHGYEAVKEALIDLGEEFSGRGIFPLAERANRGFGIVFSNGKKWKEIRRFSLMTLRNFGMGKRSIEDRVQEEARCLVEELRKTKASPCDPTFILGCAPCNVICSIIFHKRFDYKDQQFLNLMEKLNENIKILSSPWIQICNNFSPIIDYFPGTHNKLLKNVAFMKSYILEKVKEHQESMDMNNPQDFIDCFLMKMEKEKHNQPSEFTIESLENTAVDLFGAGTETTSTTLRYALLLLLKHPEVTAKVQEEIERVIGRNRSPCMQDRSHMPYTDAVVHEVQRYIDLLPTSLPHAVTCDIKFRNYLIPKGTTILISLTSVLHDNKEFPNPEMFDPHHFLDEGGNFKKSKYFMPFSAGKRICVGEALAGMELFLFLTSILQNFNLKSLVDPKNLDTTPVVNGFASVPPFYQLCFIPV

CCCCCCCCCCCC(=O)OCC(COP(=O)(O)OCCNC(=O)c1ccc(Cn2c(=O)[nH]c3c(N)nc(OCCOC)nc32)cc1)OC(=O)CCCCCCCCCCC (stereo not drawn) [SC12]
inhibition of CYP2C9 (CYP2C9): weak inhibition
inhibition of CYP3A4 (CYP3A4): moderate inhibition
adverse behavioral effects ([1]; IV 1 mg/kg): No adverse behavioral effects were noted
AUC INF obs ([1]; IV bolus 1 mg/kg, plasma): 12878 ng·min/mL
AUClast ([1]; IV bolus 1 mg/kg, plasma): 11744 ng·min/mL
IL-10 production (human whole blood): no IL-10 production was seen
potency for TNF-alpha secretion (PBMCs): on average slightly more potent than compound A
adjuvant potency, Th1 immune response (OVA specific Ig; 100 nmoles SC12 equivalent to 10 nmoles compound A): 10 times less potent than compound A or compound A*
antigen specific IgG2a (OVA specific Ig; OVA 20 μg with 10 or 100 nmoles, days 0 and 7): significantly higher than the immunization with OVA alone
OVA-specific IgG1 (OVA specific Ig; mouse, in vivo): not found to induce high levels of OVA-specific IgG1
serum IL-12 ([2]; day 0, 2 hour time point, intravesical about 207 nmoles in 50 μl): elevated levels of IL-12
bladder histology, cell infiltration ([2]; day 7): immune cell infiltration in the bladder
activity in NFkB RAW cells (NFκB-bla Raw 264.7 Cells): more active than the free pharmocophore
solubility ([3]; P450 assays, especially in ACN): low solubility
precipitation in bacterial mutation assay ([3]; toxicity test, two highest concentrations (5000 and 1580 micrograms/plate), end of incubation): Precipitation
toxicity [4]: No signs of toxicity
toxicity to tester strains ([5]; 50.0-5000 micrograms/plate, absence or presence of S9): No toxicity was observed with any tester strain at any dose level
reverse mutation ([5]; up to 5000 micrograms/plate, absence or presence of S9 metabolism): does not induce reverse mutation
serum IL-6 (Inv-Myc mice; 2 hours after the first administration): less IL-6 than Aldara
Ki67 positive cells (Inv-Myc mice; Experiment 1): decreased Ki67 positive cells
gross appearance of skin (Inv-Myc mice; Experiment 1): redness and scaling
gross appearance of skin (Inv-Myc mice; Experiment 2): smooth and soft
skin thickness (Inv-Myc mice; Experiment 2): decreased development of skin thickness
acanthosis (Inv-Myc mice; cream every other day, days 0-8): reduction in acanthosis
eczematous reaction (Inv-Myc mice; mouse, in vivo): less eczematous reaction than Aldara (Imiquimod) cream
CCR7 expression in mDCs (MFI, words) [6]: less potent stimulator of CCR7 expression
CD80 expression in mDCs (MFI, words) [6]: noteworthy CD80 expression in all three donors
CD86 expression in mDCs (MFI, words) [6]: weak CD86 expression in donor 2 and 3, but not in donor 1
serum IL-6 and TNF-alpha (MB49 cells; Experiment 1, in Phosal 50, 50 microliters, 20 minutes, 2 h and 24 h): under the detection levels
bladder histology, cell infiltration (MB49 cells; Experiment 4, SC12 0.38%, MB49 implanted bladder, day 11): more monocyte infiltration
